Laboratory results from publication PMC11617653, “Macrocyclic Inhibitors Targeting the Prime Site of the Fibrinolytic Serine Protease Plasmin” (Chemmedchem, 2024).

Columns and labels:
[1] = system: plasmin; conditions: read-out: IC50, plasmin; Figure 1; cited from earlier work
[2] = target: factor Xa (fXa) (Homo sapiens, UniProt P00742); experiment: Selectivity: inhibition of factor Xa; assay type: biochemical; conditions: deduced from pre-assays with only three inhibitor concentrations; read-out: fXa K i
Procedure: (§1) For these three proteases a selectivity index (SI=K i(protease)/K i(plasmin)) was calculated, which is provided in brackets after the inhibition constants (Table 3).
(§2) The measurements with the related trypsin‐like serine proteases trypsin, plasma kallikrein, factor XIa, thrombin, activated protein Ca and factor Xa used in selectivity studies were performed as described previously.[11, 12]

[3] = target: T1, human plasmin (Homo sapiens, UniProt P00747); experiment: Inhibition of human plasmin, fluorogenic substrate Mes-DArg-Phe-Arg-AMC; assay type: biochemical
T1 construct: purchased Calbiochem
Procedure: All inhibitors prepared in this study act as reversible competitive plasmin inhibitors, their K i values were calculated by fitting the steady‐state velocities as function of the inhibitor concentrations using equation 1. 4‐aminophenylalanine (Phe(4‐NH2)) was incorporated as P1’ residue in the first inhibitor series, which enabled a macrocyclization via amide bond formation from its side chain amino group using various linker segments and P2’ residues (Table 1). […] The improved potency of SFTI‐1 analogues with basic P2’ residues[9] stimulated the incorporation of Arg in that position leading to inhibitor 4 with a slightly stronger inhibitory potency. A significant improvement could be achieved when using 3‐ or 4‐aminophenylacetic acid as P2’ group in combination with elongated linker residues (5‐6). […] However, inhibitor 9 is a twofold stronger plasmin inhibitor compared to its analogue 8.
For these inhibitors the steady‐state velocities were calculated by fitting the progress curves to equation 2 providing an additional apparent first‐order rate constant k obs for each curve. The steady‐state rates were used for K i determination with equation 1 and the k obs values for the calculation of the association rate constants k on according to equation 3. The dissociation rate constant k off was calculated from the known K i and k on values using equation 4. The enzyme kinetic evaluation of slow‐binding inhibitors of plasmin has already been described in detail in our two previous publications.[11, 12]
All measurements were conducted as triplicates in black 96‐well FluoroNunc MaxiSorp plates (Nunc, Langenselbold, Germany) and suitable fluorogenic substrates at room temperature. […] Each well contained a total volume of 180 μL consisting of 100 μL of inhibitor dissolved in buffer, 40 μL of the substrate Mes‐DArg‐Phe‐Arg‐AMC[11] (100 μM in assay, KM=16.1 μM) dissolved in water and 40 μL of plasmin solution (0.27 nM in assay). The following equations were used for the enzyme kinetic analysis as described in the results section and in our previous publications.[11, 12] (1) [drawing 71] (2) [drawing 72] (3) [drawing 73] (4) [drawing 74]

[4] = target: thrombin (Homo sapiens, UniProt P00734); experiment: Selectivity: inhibition of thrombin; assay type: biochemical; conditions: deduced from pre-assays with only three inhibitor concentrations; read-out: Thrombin K i
Procedure: as §1, §2

[5] = target: factor XIa (fXIa) (Homo sapiens, UniProt P03951); experiment: Selectivity: inhibition of factor XIa; assay type: biochemical; conditions: for fXIa selectivity index K i(protease)/Ki(plasmin): in brackets; for Ki: read-out: fXIa K i
Procedure: as §1, §2

[6] = target: activated protein C (aPC) (Homo sapiens, UniProt P04070); experiment: Selectivity: inhibition of activated protein C; assay type: biochemical; conditions: deduced from pre-assays with only three inhibitor concentrations; read-out: aPC K i
Procedure: as §1, §2

[7] = target: plasma kallikrein (PK) (Homo sapiens, UniProt P03952); experiment: Selectivity: inhibition of plasma kallikrein; assay type: biochemical; conditions: for PK selectivity index K i(protease)/Ki(plasmin): in brackets; for Ki: read-out: PK K i
Procedure: as §1, §2

[8] = Water solubility (qualitative comparison); conditions: compared to inhibitor 28
[9] = target: PK; conditions: no reference given; read-out: K i, PK; cited from earlier work
[10] = K i (nM), inhibition of plasmin, series two, substituted Bpa in P1', and acyclic analogues, steady-state velocities, equation 1
[11] = Plasmin K i, Table 3 selectivity

Sequence of factor XIa (fXIa) (P03951 19-387): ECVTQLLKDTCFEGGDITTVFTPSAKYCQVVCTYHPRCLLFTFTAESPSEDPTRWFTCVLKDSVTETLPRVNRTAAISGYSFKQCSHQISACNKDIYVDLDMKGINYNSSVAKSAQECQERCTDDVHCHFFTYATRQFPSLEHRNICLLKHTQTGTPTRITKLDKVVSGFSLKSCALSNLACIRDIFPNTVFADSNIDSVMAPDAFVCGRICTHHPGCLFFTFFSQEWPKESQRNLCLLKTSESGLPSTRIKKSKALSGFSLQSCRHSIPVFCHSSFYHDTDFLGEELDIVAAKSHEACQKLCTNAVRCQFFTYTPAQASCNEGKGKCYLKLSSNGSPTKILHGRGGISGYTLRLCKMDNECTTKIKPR
Sequence of factor XIa (fXIa) (P03951 388-625): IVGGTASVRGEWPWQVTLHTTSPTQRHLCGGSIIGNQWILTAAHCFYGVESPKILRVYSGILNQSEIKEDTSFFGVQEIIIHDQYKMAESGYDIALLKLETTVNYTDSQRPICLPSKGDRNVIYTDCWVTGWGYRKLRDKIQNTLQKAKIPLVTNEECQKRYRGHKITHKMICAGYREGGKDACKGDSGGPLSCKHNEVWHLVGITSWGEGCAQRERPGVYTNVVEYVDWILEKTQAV
T1 sequence (P00747 581-810): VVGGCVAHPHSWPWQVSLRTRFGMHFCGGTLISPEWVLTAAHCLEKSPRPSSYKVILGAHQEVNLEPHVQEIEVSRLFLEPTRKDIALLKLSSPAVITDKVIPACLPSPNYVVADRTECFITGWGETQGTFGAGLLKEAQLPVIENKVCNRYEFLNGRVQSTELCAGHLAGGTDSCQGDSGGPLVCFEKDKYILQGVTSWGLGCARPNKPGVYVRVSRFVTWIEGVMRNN
T1 sequence (P00747 97-580): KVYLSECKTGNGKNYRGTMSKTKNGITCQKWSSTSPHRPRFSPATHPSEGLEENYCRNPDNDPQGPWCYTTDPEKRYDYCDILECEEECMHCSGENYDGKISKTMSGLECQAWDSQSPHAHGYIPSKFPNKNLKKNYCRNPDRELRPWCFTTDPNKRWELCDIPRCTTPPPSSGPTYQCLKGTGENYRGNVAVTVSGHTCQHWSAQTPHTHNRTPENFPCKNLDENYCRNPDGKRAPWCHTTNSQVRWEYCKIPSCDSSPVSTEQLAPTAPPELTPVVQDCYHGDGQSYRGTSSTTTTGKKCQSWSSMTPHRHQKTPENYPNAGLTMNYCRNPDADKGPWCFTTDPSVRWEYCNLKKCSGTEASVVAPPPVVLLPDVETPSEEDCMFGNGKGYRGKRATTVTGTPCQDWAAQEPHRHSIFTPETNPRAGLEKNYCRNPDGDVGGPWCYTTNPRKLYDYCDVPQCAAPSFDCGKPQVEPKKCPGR
Sequence of plasma kallikrein (PK) (P03952 391-638): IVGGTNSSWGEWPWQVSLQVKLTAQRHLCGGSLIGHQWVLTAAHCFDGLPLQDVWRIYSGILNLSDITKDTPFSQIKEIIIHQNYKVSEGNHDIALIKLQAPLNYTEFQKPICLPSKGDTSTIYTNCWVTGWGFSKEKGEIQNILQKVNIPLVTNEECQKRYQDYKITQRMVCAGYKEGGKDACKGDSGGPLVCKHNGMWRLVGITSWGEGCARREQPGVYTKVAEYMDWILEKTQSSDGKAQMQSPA
Sequence of plasma kallikrein (PK) (P03952 20-390): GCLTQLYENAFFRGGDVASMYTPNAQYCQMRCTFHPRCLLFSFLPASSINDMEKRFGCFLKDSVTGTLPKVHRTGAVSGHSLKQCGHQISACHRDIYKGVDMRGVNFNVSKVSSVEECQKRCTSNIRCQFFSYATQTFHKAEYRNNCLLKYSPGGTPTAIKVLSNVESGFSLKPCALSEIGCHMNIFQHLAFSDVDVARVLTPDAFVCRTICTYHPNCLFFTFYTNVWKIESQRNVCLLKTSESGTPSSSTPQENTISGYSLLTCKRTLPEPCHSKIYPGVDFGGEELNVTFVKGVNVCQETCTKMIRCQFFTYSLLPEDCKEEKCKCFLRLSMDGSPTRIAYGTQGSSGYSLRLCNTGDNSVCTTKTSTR
Sequence of activated protein C (aPC) (P04070 43-197): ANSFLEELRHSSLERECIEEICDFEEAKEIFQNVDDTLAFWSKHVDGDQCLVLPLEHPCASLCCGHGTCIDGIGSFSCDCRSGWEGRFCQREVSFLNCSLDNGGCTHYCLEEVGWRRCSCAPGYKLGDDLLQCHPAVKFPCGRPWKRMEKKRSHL
Sequence of activated protein C (aPC) (P04070 212-461): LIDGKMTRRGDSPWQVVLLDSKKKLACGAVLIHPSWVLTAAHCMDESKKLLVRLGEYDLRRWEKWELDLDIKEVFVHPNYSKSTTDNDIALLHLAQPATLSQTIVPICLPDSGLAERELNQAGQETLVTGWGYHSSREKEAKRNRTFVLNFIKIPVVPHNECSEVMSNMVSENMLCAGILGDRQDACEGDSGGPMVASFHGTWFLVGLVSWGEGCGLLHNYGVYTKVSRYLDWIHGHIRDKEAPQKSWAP
Sequence of factor Xa (fXa) (P00742 41-179): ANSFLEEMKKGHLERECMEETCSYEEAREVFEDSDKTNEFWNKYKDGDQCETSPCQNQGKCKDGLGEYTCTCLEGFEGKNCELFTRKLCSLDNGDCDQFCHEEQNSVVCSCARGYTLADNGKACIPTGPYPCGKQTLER
Sequence of factor Xa (fXa) (P00742 235-488): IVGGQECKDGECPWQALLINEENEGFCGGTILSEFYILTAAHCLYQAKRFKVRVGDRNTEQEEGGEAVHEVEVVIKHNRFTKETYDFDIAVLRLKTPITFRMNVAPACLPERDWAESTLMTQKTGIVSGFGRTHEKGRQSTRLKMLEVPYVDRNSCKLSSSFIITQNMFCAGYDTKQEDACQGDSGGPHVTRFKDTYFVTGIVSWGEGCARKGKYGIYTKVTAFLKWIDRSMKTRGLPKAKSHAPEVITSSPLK

Ki [2] [nM] | Ki [3, 10] [nM] | Ki [3, 11] [nM] | Ki [4] [nM] | fXIa selectivity index K i(protease)/Ki(plasmin) [5] | Ki [5] [nM] | Ki [6] [nM] | PK selectivity index K i(protease)/Ki(plasmin) [7] | Ki [7] [nM] | Compound | IC50 [1] [nM] | water solubility [8] | Ki [9] [nM]
 |  |  |  |  |  |  |  |  | CCCCCCCCNC(=O)[C@H](Cc1ccc(OCc2ccncc2)cc1)NC(=O)[C@H]1CC[C@H](CN)CC1 [YO-2] | 240 |  | 
> 9000 | 9.47 ± 0.75 | 9.47 | > 80000 | 13 | 110 ± 10 | > 40000 | 14 | 120 ± 10 | Cc1ccc2cc1NC(=O)CNC(=O)CCCNC(=O)Cc1cccc(c1)NC(=O)[C@@H](NC(=O)[C@H]1CC[C@H](CN)CC1)Cc1ccc-2cc1 [inhibitor 40] |  |  | 
> 40000 | 2.53 ± 0.23 | 2.53 | > 40000 | 137 | 320 ± 50 | > 4000 | 62 | 156 ± 35 | Cc1ccc2cc1NC(=O)CNC(=O)CCNC(=O)c1ccc3cc(ccc3c1)NC(=O)[C@@H](NC(=O)[C@H]1CC[C@H](CN)CC1)Cc1ccc-2cc1 [inhibitor 45] |  |  | 
 |  |  |  |  |  |  |  |  | aprotinin |  |  | 30

Compound | Ki [2] [nM] | Ki [3, 10] [nM] | Ki [3, 11] [nM] | Ki [4] [nM] | fXIa selectivity index K i(protease)/Ki(plasmin) [5] | Ki [5] [nM] | Ki [6] [nM] | PK selectivity index K i(protease)/Ki(plasmin) [7] | Ki [7] [nM] | IC50 [1] [nM] | water solubility [8] | Ki [9] [nM]
Cc1ccc2cc1NC(=O)C(CCc1ccccc1)NC(=O)CCCNC(=O)Cc1ccc(cc1)NC(=O)C(NC(=O)C1CCC(CN)CC1)Cc1ccc-2cc1 (stereo not drawn) [inhibitor 31] | > 80000 | 0.831 ± 0.154 | 0.831 | > 75000 | 117 | 88 ± 23 | > 10000 | 89 | 67 ± 4 |  | reduced water solubility | 
